Assay results taken from publication PMC10041525, “New Dual Inhibitors of Bacterial Topoisomerases with Broad-Spectrum Antibacterial Activity and In Vivo Efficacy against Vancomycin-Intermediate Staphylococcus aureus” (Journal of Medicinal Chemistry, 2023).

System: 100 A. baumannii strains (50 MDR, 50 non-MDR)
Assay: MIC broth microdilution at IHMA Europe, panel of 100 strains
Format: cell-based

“piperacillin/tazobactam [Piperacillin Tazobactam]” was tested, and the MIC (A. baumannii IHMA 2193375, Venezuela 2020, MDR) was over 128 µg/mL, the MIC (A. baumannii IHMA 2193485, Venezuela 2020, Non-MDR) was at most 0.25 µg/mL and the MIC (A. baumannii IHMA 2193607, Venezuela 2020, MDR) was over 128 µg/mL. It also gave an MIC (A. baumannii IHMA 2195460, Italy 2020, MDR) of over 128 µg/mL, an MIC (A. baumannii IHMA 2196914, South Africa 2020, MDR) of over 128 µg/mL and an MIC (A. baumannii IHMA 2196959, South Africa 2020, MDR) of over 128 µg/mL. It also gave an MIC (A. baumannii IHMA 2203763, Spain 2020, MDR) of over 128 µg/mL, an MIC (A. baumannii IHMA 2205144, Korea, South 2020, MDR) of over 128 µg/mL and an MIC (A. baumannii IHMA 2206459, Taiwan 2020, MDR) of over 128 µg/mL. The MIC (A. baumannii IHMA 2206507, Taiwan 2020, Non-MDR) was at most 0.25 µg/mL, the MIC (A. baumannii IHMA 2212575, Hungary 2020, Non-MDR) was 4 µg/mL and the MIC (A. baumannii IHMA 2215307, Hong Kong 2020, Non-MDR) was 1 µg/mL. The MIC (A. baumannii IHMA 2216586, Taiwan 2020, MDR) was over 128 µg/mL, the MIC (A. baumannii IHMA 2223200, Colombia 2020, Non-MDR) was at most 0.25 µg/mL and the MIC (A. baumannii IHMA 2224017, Panama 2020, MDR) was over 128 µg/mL. For the same substance, the MIC (A. baumannii IHMA 2224303, Panama 2020, Non-MDR) was 16 µg/mL, the MIC (A. baumannii IHMA 2231797, Greece 2020, MDR) was over 128 µg/mL and the MIC (A. baumannii IHMA 2233099, Guatemala 2020, MDR) was over 128 µg/mL. It also gave an MIC (A. baumannii IHMA 2233430, Kazakhstan 2020, MDR) of over 128 µg/mL, an MIC (A. baumannii IHMA 2233548, Kazakhstan 2020, Non-MDR) of at most 0.25 µg/mL and an MIC (A. baumannii IHMA 2238964, Thailand 2020, MDR) of over 128 µg/mL. For the same substance, the MIC (A. baumannii IHMA 2239052, Thailand 2020, Non-MDR) was at most 0.25 µg/mL, the MIC (A. baumannii IHMA 2261047, Belgium 2020, MDR) was over 128 µg/mL and the MIC (A. baumannii IHMA 2261633, Canada 2020, Non-MDR) was at most 0.25 µg/mL. For the same substance, the MIC (A. baumannii IHMA 2274234, South Africa 2020, MDR) was over 128 µg/mL, the MIC (A. baumannii IHMA 2274364, South Africa 2020, MDR) was over 128 µg/mL and the MIC (A. baumannii IHMA 2275237, Chile 2020, Non-MDR) was at most 0.25 µg/mL. The MIC (A. baumannii IHMA 2275751, Jordan 2020, MDR) was over 128 µg/mL, the MIC (A. baumannii IHMA 2316205, United States 2020, MDR) was over 128 µg/mL and the “MAX (maximum MIC; all strains inhibited)” value (MDR n = 50) was over 128 µg/mL. The “MIC50” value (MDR n = 50) was over 128 µg/mL, the “MIC90” value (MDR n = 50) was over 128 µg/mL and the “MIN (minimum MIC)” value (MDR n = 50) was over 128 µg/mL. The “Percentage I” value (MDR n = 50) was 0%, the “Percentage R” value (MDR n = 50) was 100% and the “Percentage S” value (MDR n = 50) was 0%. For the same substance, the “Cumulative % at MIC” value (MDR n=50, MIC >128 µg/mL) was 100%, the “No. of isolates at MIC” value (MDR n=50, MIC >128 µg/mL) was 50 and the “MAX (maximum MIC; all strains inhibited)” value (all isolates n = 100) was over 128 µg/mL. The “MIC50” value (all isolates n = 100) was 16 µg/mL, the “MIC90” value (all isolates n = 100) was over 128 µg/mL and the “MIN (minimum MIC)” value (all isolates n = 100) was at most 0.25 µg/mL. The “Percentage I” value (all n = 100, CLSI breakpoints) was 0%, the “Percentage R” value (all n = 100, CLSI breakpoints) was 50% and the “Percentage S” value (all n = 100, CLSI breakpoints) was 50%. The “Cumulative % at MIC” value (all n=100, MIC 0.5 µg/mL) was 36%, the “No. of isolates at MIC” value (all n=100, MIC 0.5 µg/mL) was 1 and the “Cumulative % at MIC” value (all n=100, MIC 1 µg/mL) was 37%. For the same substance, the “No. of isolates at MIC” value (all n=100, MIC 1 µg/mL) was 1, the “Cumulative % at MIC” value (all n=100, MIC 2 µg/mL) was 39% and the “No. of isolates at MIC” value (all n=100, MIC 2 µg/mL) was 2. For the same substance, the “Cumulative % at MIC” value (all n=100, MIC […] µg/mL) was 50%, the “No. of isolates at MIC” value (all n=100, MIC […] µg/mL) was 3 and the “Cumulative % at MIC” value (all n=100, MIC >128 µg/mL) was 100%. The “No. of isolates at MIC” value (all n=100, MIC >128 µg/mL) was 50, the “Cumulative % at MIC” value (all n=100, MIC ≤[…]) was 35% and the “No. of isolates at MIC” value (all n=100, MIC ≤[…]) was 35. The “MAX (maximum MIC)” value (non-MDR n = 50) was 16 µg/mL, the “MIC50” value (non-MDR n = 50) was at most 0.25 µg/mL and the “MIC90” value (non-MDR n = 50) was 4 µg/mL. The “MIN (minimum MIC)” value (non-MDR n = 50) was at most 0.25 µg/mL, the “Percentage I” value (non-MDR n = 50) was 0% and the “Percentage R” value (non-MDR n = 50) was 0%. For the same substance, the “Percentage S” value (non-MDR n = 50) was 100%, the “Cumulative % at MIC” value (non-MDR n=50, MIC 0.5 µg/mL) was 72% and the “No. of isolates at MIC” value (non-MDR n=50, MIC 0.5 µg/mL) was 1. For the same substance, the “Cumulative % at MIC” value (non-MDR n=50, MIC 1 µg/mL) was 74%, the “No. of isolates at MIC” value (non-MDR n=50, MIC 1 µg/mL) was 1 and the “Cumulative % at MIC” value (non-MDR n=50, MIC 2 µg/mL) was 78%. For the same substance, the “No. of isolates at MIC” value (non-MDR n=50, MIC 2 µg/mL) was 2, the “Cumulative % at MIC” value (non-MDR n=50, MIC […] µg/mL) was 100% and the “No. of isolates at MIC” value (non-MDR n=50, MIC […] µg/mL) was 3. For the same substance, the “Cumulative % at MIC” value (non-MDR n=50, MIC ≤[…]) was 70% and the “No. of isolates at MIC” value (non-MDR n=50, MIC ≤[…]) was 35.
